Data as given in patent US20130203635A1, “NUCLEIC ACID LIGATION METHOD” (priority 2012, published 2013).
Entries after “also recorded” stand apart in the source; their conditions may differ.

How the values were obtained:
[1] = test system: Escherichia coli RtcB ligase; assay: E. coli RtcB RNA ligation assay (3′-P and 5′-OH termini, urea-polyacrylamide gel); format: biochemical; conditions: for use as cofactor in ligation of 3′-P and 5′-OH RNA termini: in place of GTP, tRNA anticodon stem-loop mimic substrate, with Mn2+ (FIG. 1B, 1C)
Description: FIG. 1. […] (A) RNA ligation substrate that mimics a broken tRNA anti-codon. FAM label allows visualization in a urea-polyacrylamide gel. […] (B) Cofactor- and metal-dependence of ligation. Reactions contain manganese, except in the “—Mn^2+” lane. The lane labeled “C78A” is a ligation reaction performed with RtcB that has a C78A substitution within the predicted metal binding site. (C) Ligation assays using GTP analogues as cofactors. […] (E) RNA termini specificity of RtcB. Modifications to the ligatable ends of the tRNA mimic substrate were made as indicated and tested in ligation reactions.
To assay for ligation, we initially used two single-stranded RNA (ssRNA) oligos that were each 10 nucleotides in length. The 5′ RNA fragment was labeled with 6-carboxyfluorescein (FAM) at its 5′ end and phosphorylated at its 3′ end. The 3′ RNA fragment had hydroxyl groups at each end. We intended to convert the 3′-P into a 2′,3′-cyclic phosphate by incubation with RtcA and ATP, so as to produce a suitable substrate for RtcB.
These reactions were performed with high concentrations of GTP analogues to ensure saturation of RtcB.
We investigated the RNA termini structure requirements for ligation by modifying the ends of our tRNA mimic substrate. First, all four combinations of either a phosphate or hydroxyl group at each termini were sampled while maintaining a 2′-OH on the 5′ side of the ligation junction. […] Next, the importance of the terminal ribose 2′-OH for ligation was probed by replacing this hydroxyl group with either hydrogen (2′-H) or fluorine (2′-F).

[2] = test system: P. horikoshii RtcB; assay: P. horikoshii RtcB RNA ligation assay; format: biochemical, Pyrococcus horikoshii; conditions: for use as cofactor in RNA ligation with Archease: Archease 0.25 μM, NTP 100 μM, RtcB 5 μM (FIG. 10B, 11B)
Description: FIG. 2. P. horikoshii RtcB catalyzed ligation of 3′-P and 5′-OH RNA termini. P. horikoshii RtcB requires Mn^2+ and GTP for ligation. […] The lane labeled “2′-deoxy” is a ligation reaction using the tRNA mimic substrate but with a 3′-P/2′-H termini on its 5′ fragment. The lane labeled “C98A” is a ligation reaction with RtcB that has a C98A substitution within the predicted metal-binding site.
RtcB from the archaeal domain of life likewise catalyzes the GTP-dependent ligation of 3′-P and 5′-OH RNA termini. The crystal structure of RtcB from a hyperthermophilic archaeon, Pyrococcus horikoshii, was determined as part of a structural genomics project (21). […] The P. horikoshii homologue has 29% amino-acid sequence identity to E. coli RtcB, and 49% identity to the human ligase (HSPC117). To investigate if RtcB from archaea catalyzes the GTP-dependent ligation of 3′-P and 5′-OH RNA termini, we synthesized a P. horikoshii rtcB gene and produced soluble enzyme in E. coli. […] The P. horikoshii ligase also required a 2′-OH on the terminal nucleotide of the 5′ RNA fragment.
RNA Ligation Assay. Ligation assays with single-stranded RNA as the substrate used two 10-nt oligonucleotides that were synthesized by Integrated DNA Technologies (15). […] The 3′ RNA fragment had hydroxyl groups on each end. The sequence of the 5′ fragment was FAM-5′-AAAUAACAAA-3′-P (SEQ ID NO:6) and the sequence of the 3′ RNA fragment was 5′-AAAUAACAAA-3′ (SEQ ID NO:6). Ligation reactions were performed in 10-μL solutions consisting of 50 mM Bis-Tris buffer, pH 7.0, containing NaCl (300 mM), […] (0.25 mM), GTP (100 μM), each RNA fragment (1 μM), and RtcB (10 μM). Reaction mixtures were incubated at 70° C. for 1 h prior to the addition of water (40 μL) and RNA-loading buffer (50 μL). Reaction mixtures were subjected to electrophoresis and visualized as previously described in the previous examples.
The ability of Archease to activate P. horikoshii RtcB was tested in reactions using ssRNA substrates. Ligation reactions included a 10-nt 5′ RNA fragment and a 10-nt 3′ RNA fragment. […] The 3′ RNA fragment had hydroxyl groups on each end. The sequence of the 5′ fragment was FAM-5′-AAAUAACAAA-3′-P (SEQ ID NO:6) and the sequence of the 3′ RNA fragment was 5′-AAAUAACAAA-3′ (SEQ ID NO:6). Ligation reactions were performed in 50-μL solutions consisting of 50 mM Tris-HCl buffer, pH 7.4, containing NaCl (300 mM), MnCl2 (0.25 mM), GTP (100 μM), RNA fragments (100 pmol of each), and P. horikoshii RtcB (5 μM).
Ligation reaction mixtures were set up as described above, and each was divided into two tubes. No Archease was added to one set of reaction mixtures (FIG. 10A), and Archease was added to a concentration of 0.25 μM to the other set (FIG. 10B). […] Archease had no effect on ligation reactions that used 2′-F RNA.
We tested the ability of Archease to enable RtcB to use cofactors other than GTP or dGTP. Ligation reaction mixtures with RtcB were set up as described above, and each was divided into two tubes. No Archease was added to one set of reaction mixtures (FIG. 11A), and Archease was added to a concentration of 0.25 μM to the other set (FIG. 11B). The various NTPs were included at a concentration of 100 μM.

| Molecule | use as cofactor in ligation of 3′-P and 5′-OH RNA termini [1] | other results |
| --- | --- | --- |
| Nc1ccn([C@@H]2O[C@H](COP(=O)(O)OP(=O)(O)OP(=O)(O)O)[C@@H](O)[C@H]2O)c(=O)n1 [CTP] | unable to substitute for GTP | use as cofactor in RNA ligation with Archease [2]: not |
| Nc1nc2c(ncn2[C@@H]2O[C@H](COP(=O)(O)OP(=O)(O)O)[C@@H](O)[C@H]2O)c(=O)[nH]1 [GDP] | allowed for low levels of ligation | – |
| Nc1nc2c(ncn2[C@@H]2O[C@H](COP(=O)(O)O)[C@@H](O)[C@H]2O)c(=O)[nH]1 [GMP] | allowed for low levels of ligation | – |
| Nc1nc2c(ncn2[C@@H]2O[C@H](COP(=O)(O)OP(=O)(O)OP(O)(O)=S)[C@@H](O)[C@H]2O)c(=O)[nH]1 [GTPγS] | enabled ligation, albeit at lower efficiency than did GTP | – |
| Nc1nc2c(ncn2C2OC(COP(=O)(O)CP(=O)(O)OP(=O)(O)O)C(O)C2O)c(=O)[nH]1 (stereo not drawn) [GpCpp, guanosine 5′-(α,β-methyleno)-triphosphate] | unreactive; also recorded: did not enable the ligation to proceed | – |
| Nc1nc2c(ncn2[C@@H]2O[C@H](COP(=O)(O)OP(=O)(O)CP(=O)(O)O)[C@@H](O)[C@H]2O)c(=O)[nH]1 [GppCp] | enabled ligation, albeit at lower efficiency than did GTP | – |
| Nc1nc2c(ncn2[C@@H]2O[C@H](COP(=O)(O)OP(=O)(O)NP(=O)(O)O)[C@@H](O)[C@H]2O)c(=O)[nH]1 [GppNHp] | enabled ligation, albeit at lower efficiency than did GTP | – |
| NC(=O)c1ccc[n+]([C@@H]2O[C@H](COP(=O)([O-])OP(=O)(O)OC[C@H]3O[C@@H](n4cnc5c(N)ncnc54)[C@H](O)[C@@H]3O)[C@@H](O)[C@H]2O)c1 [NAD^+] | unable to substitute for GTP | – |
| O=c1ccn([C@@H]2O[C@H](COP(=O)(O)OP(=O)(O)OP(=O)(O)O)[C@@H](O)[C@H]2O)c(=O)[nH]1 [UTP] | unable to substitute for GTP | use as cofactor in RNA ligation with Archease [2]: not |
| Nc1nc2c(ncn2[C@H]2C[C@H](O)[C@@H](COP(=O)(O)OP(=O)(O)OP(=O)(O)O)O2)c(=O)[nH]1 [dGTP, deoxyguanosine-5′-triphosphate] | – | use as cofactor in RNA ligation with Archease [2]: enables RtcB to use dGTP efficiently as a cofactor; use as cofactor in RNA ligation ([2]; RtcB alone, no Archease, ssRNA 10-nt substrates): ligation activity is reduced substantially; also recorded: at a rate that is much lower than that with GTP; also recorded: ligation efficiency is reduced greatly |
| Archease: Pyrococcus horikoshii Archease (SEQ ID NO:9; UniProt O59205), N-terminal hexahistidine tag (protein, listed as Pyrococcus horikoshii, N-terminal His6 tag) MKKWEHYEHTADIGIRGYGDSLEEAFEAVAIALFDVMVNVNKVEKKEVREIEVEAEDLEALLYSFLEELLVIHDIEGLVFRDFEVKIERVNGKYRLRAKAYGEKLDLKKHEPKEEVKAITYHDMKIERLPNGKWMAQLVPDI | – | effect of Archease on catalysis of RNA ligation by RtcB ([2]; Archease at concentrations lower than RtcB or RNA, GTP 100 μM (FIG. 9)): significantly enhances the catalytic activity of RtcB |
| C78A: E. coli RtcB with Cys78→Ala78 substitution within predicted metal-binding site (protein, UniProt P46850 1-408, looked up, variant C78A) RNA-splicing ligase RtcB: MNYELLTTENAPVKMWTKGVPVEADARQQLINTAKMPFIFKHIAVMPDVHLGKGSTIGSVIPTKGAIIPAAVGVDIGAGMNALRTALTAEDLPENLAELRQAIETAVPHGRTTGRCKRDKGAWENPPVNVDAKWAELEAGYQWLTQKYPRFLNTNNYKHLGTLGTGNHFIEICLDESDQVWIMLHSGSRGIGNAIGTYFIDLAQKEMQETLETLPSRDLAYFMEGTEYFDDYLKAVAWAQLFASLNRDAMMENVVTALQSITQKTVRQPQTLAMEEINCHHNYVQKEQHFGEEIYVTRKGAVSARAGQYGIIPGSMGAKSFIVRGLGNEESFCSCSHGAGRVMSRTKAKKLFSVEDQIRATAHVECRKDAEVIDEIPMAYKDIDAVMAAQSDLVEVIYTLRQVVCVKG | – | ligase activity of RtcB variant ([1]; substitution within predicted metal-binding site): abolished ligase activity |
| C98A: P. horikoshii RtcB with Cys98→Ala98 substitution within predicted metal-binding site (protein, UniProt O59245 1-871, looked up, variant C98A) MVVPLKRIDKIRWEIPKFDKRMRVPGRVYADEVLLEKMKNDRTLEQATNVAMLPGIYKYSIVMPDGHQGYGFPIGGVAAFDVKEGVISPGGIGYDINALAPGTRVLTEHGYWLKIEEMPEKFKLQRLRVYNIEEGHNDFSKVVFVAEREVGSEEKAIRIVTESGKVIEGSEDHPVLTPEGYVYLRNVKEGDYILVYPFEGVPYEEKKGVILDESAFEGEDPQVVKFLRERNLIPLQWKDPKVGILARILGFALANGYISENDNLTFHGKEEVLREVRKDLEELGIEAIVAEEDKLKVTSREFAFLLEKLGMAHDSIPEWIIEGPLWIKRNFLAGLFGANGSIVEFKGDVPLPITLTHSRELLNDVSRILEGFKVRAKIKMGKNGSYQLVIEDEDSIRNFLGRINYEYDPEKKARGLIAYAYLKFKELMKGNLMTFEEFARDRGYEGGFVAEKVIEVKSVKPEYDKFYDIGVYHSAHNFIANGIVVHNCGVRLIRTNLTEKEVRPRIKQLVDTLFKNVPSGVGSQGRIKLHWTQIDDVLVDGAKWAVDNGYGWERDLERLEEGGRMEGADPEAVSQRAKQRGAPQLGSLGSGNHFLEVQVVDKIFDPEVAKAYGLFEGQVVVMVHTGSRGLGHQVASDYLRIMERAIRKYRIPWPDRELVSVPFQSEEGQRYFSAMKAAANFAWANRQMITHWVRESFQEVFKQDPEGDLGMDIVYDVAHNIGKVEEHEVDGKRVKVIVHRKGATRAFPPGHEAVPRLYRDVGQPVLIPGSMGTASYILAGTEGAMKETFGSTCHGAGRVLSRKAATRQYRGDRIRQELLNRGIYVRAASMRVVAEEAPGAYKNVDNVVKVVSEAGIAKLVARMRPIGVAKG | – | ligase activity of RtcB variant ([2]; alanine substitution): abolishes ligase activity |
